Measurements as given in patent publication US5519057A, “Ibuprofen-containing medicament” (priority 1986, dated 1996).

What was measured:
[1] = tested on: afferent nerves of the feet of female Rhesus monkeys; assay: Analgesia test: threshold voltage for stimulus response on electrical stimulation of the feet of female Rhesus monkeys; assay type: in vivo, Rhesus monkeys (macaca mulatta); conditions: for Median percentage change in the threshold voltage: ibuprofen forms 50 mg/kg, acetylsalicylic acid 100 mg/kg; for analgetic effect (in words) / change in the threshold voltage (in words) / increase of the threshold voltage / time to achieve the increase of threshold voltage: 50 mg/kg ibuprofen form
Experimental: In this test the afferent nerves of the feet of female Rhesus monkeys were electrically stimulated. For the test four adult female Rhesus monkeys (macaca mulatta) were used.
The monkeys were trained in such a way that they sat in chairs wearing an aluminium foil shoe during the test.
On the days when the test was carried out the monkeys were sat in these stools. One foot of each monkey was smeared with electrode gel and the aluminium shoe was fitted over it.
A Grass-stimulator (S 88) was connected to the monkeys via a multiple-way switch (the positive lead was connected to the aluminium shoe, the negative lead to the chair). An electrical stimulation, each time of 2 seconds duration with a frequency of 60 Hz was applied (the magnitude of stimulation was altered by adjusting the voltage supplied to the stimulator; the corresponding current was measured by means of an ammeter connected in series).
The stimulus required to achieve a stimulus threshold was determined. For this purpose the voltage was raised stepwise. The threshold voltage was taken as the lowest voltage at which bending of the toes or twisting of the foot occurred.
Before application of the medicament the animals were allowed to acclimatize for at least one hour. During this period the threshold voltage was determined at 10 minute intervals until steady readings were obtained.
Following the acclimatization period the carrier material or the active ingredient were orally administered. The threshold voltage required to effect a stimulus response in the foot of each monkey was determined at 30 minute intervals for 3 hours and then after 4 and 5 hours after administration of the active ingredient.
The observer and the stimulation apparatus were concealed behind a one-way mirror.
Between the individual tests there was an interval of at least one week.
The active ingredients 1 to 4 were prepared for oral administration by suspending them in 1.0% w/v Tragacanth. The medicaments were prepared directly before use and administered in a dose of 4 ml/kg.

[2] = human, oral
[3] = metabolites excreted in the urine; cited from earlier work
[4] = tested on: prostaglandin synthesis; conditions: animals with inflammation; cited from earlier work
[5] = tested on: humans; conditions: cited from earlier work
[6] = tested on: humans; assay: Analgetic activity in humans; assay type: in vivo; conditions: no data given
[7] = 0,5 h after oral administration
[8] = 1,0 h after oral administration, *P < 0,05 vs carrier (Mann-Whitney U) over (+)-S-Ibuprofen and acetylsalicylic acid
[9] = 1,5 h after oral administration, *P < 0,05 vs carrier (Mann-Whitney U) over (+)-S-Ibuprofen
[10] = 2,0 h after oral administration
[11] = 2,5 h after oral administration
[12] = 3,0 h after oral administration
[13] = 4,0 h after oral administration
[14] = 5,0 h after oral administration
[15] = oral, 100 mg/kg acetylsalicylic acid

SMILES | Median percentage change in the threshold voltage [1, 7] | Median percentage change in the threshold voltage [1, 8] | Median percentage change in the threshold voltage [1, 9] | Median percentage change in the threshold voltage [1, 10] | Median percentage change in the threshold voltage [1, 11] | Median percentage change in the threshold voltage [1, 12] | Median percentage change in the threshold voltage [1, 13] | Median percentage change in the threshold voltage [1, 14] | analgetic effect (in words) ([1]; oral) | change in the threshold voltage (in words) ([1]; oral) | increase of the threshold voltage ([1]; oral) | time to achieve the increase of threshold voltage ([1]; oral) | also measured
CC(C)Cc1ccc([C@@H](C)C(=O)O)cc1 [(R)-(-)-ibuprofen] | -5,7% | +4,0% | +4,5% | +0,5% | -4,7% | -7,0% | -2,3% | -3,4% | inactive | no significant change in the threshold voltage |  |  | late plasma levels as % of the maximum level ([2]; after the first 4 to 6 hours): less than 10%; plasma levels relative to those after administration of the (S)-(+)-form ([2]; only after the first 4 to 6 hours): equally high or higher levels; conversion to the active (S)-(+)-enantiomer in vivo [3]: converted to the active (S)-(+)-enantiomer in vivo
CC(C)Cc1ccc(C(C)C(=O)O)cc1 (racemic) [(±)-ibuprofen, 2-(4-Isobutylphenyl)-propionic acid] | +6,4% | +8,4% | +15,7% | +15,7% | +8,5% | +18,1% | +9,7% | +17,0% |  | the level remained during the rest of the test period | approximately 15% | ≤ 90 min | analgetic effect (in words) ([1]; oral, listed as ibuprofen racemate, 50 mg/kg): analgetic activity was assumed; analgetic effect (in words) ([1]; oral, listed as racemate, 50 mg/kg): weak but long-lasting analgetic effect; difference between the median change between ibuprofen racemate and carrier ([1]; oral, 50 mg/kg, every time after 90 minutes with the exception of 150 minutes): more than 20%; inhibition of prostaglandin synthesis [4]: effective in inhibiting prostaglandin synthesis; known period of action ([5]; human): ca. 6 hours; side effects ([5]; in vivo): usual unwanted side effects of NSAR; therapeutic effect in humans ([5]; therapy of humans): reduces pain, swelling and fever caused by inflammation
CC(C)Cc1ccc([C@H](C)C(=O)O)cc1 [(S)-(+)-ibuprofen] | +9,5% | +33,5% | +51,2% | +53,9% | +45,5% | +42,3% | +33,7% | +38,2% | notable analgesic effect which was maintained for several hours | the threshold voltage remained elevated during the rest of the test period | ~50% | 90 min | amount of (S)-(+)-ibuprofen required relative to racemic ibuprofen to give a given analgetic activity ([1]; analgesia tests on monkeys): less than half as much; reduced dose requirement versus racemate shown in humans [6]: could also be shown in humans
CC(=O)Oc1ccccc1C(=O)O [Acetylsalicylic acid] | +35,8% | +56,6% | +41,4% | +80,4% | +74,6% | +72,8% | +66,1% | +59,8% |  |  |  |  | increase of the threshold voltage required for a stimulus response [1, 15]: ~80%; time to achieve the level of analgesia [1, 15]: ≤ 2 h; threshold voltage increase remaining throughout the duration of the test ([1]; oral, 100 mg/kg acetylsalicylic acid, after level achieved, up to 5 h): above 60%
